# Paper PMC11170107, “Development of a new hazard scoring system in primary neuronal cell cultures for drug-induced acute neuronal toxicity identification in early drug discovery” (Frontiers in Pharmacology, 2024)
# Experiments:
# [1] = WHO adverse drug reactions VigiBase; ref Kumlien and Lundberg, 2010; cited from earlier work
# [2] = seizure ADR frequency in SIDER; ref Campillos et al., 2008; Kuhn et al., 2010; cited from earlier work
# [3] = ref National library of medicine, Daylimed; cited from earlier work
# [4] = cited from earlier work; for Free Cmax highest: Supplementary Table S1
# [5] = tested on: rat primary cortical neurons; assay: MEA hazard scoring in rat primary cortical neuronal cultures; conditions: statistical tolerance interval of the ΔΔ% effect; One-sided interval
# Procedure: At DIV28, spontaneous neuronal activity obtained for 30 min in culture solution was defined as the baseline.
# Data analysis was captured using AxIs suite software (Axion Biosystems Inc., version 3.6.2) and further analyzed using GraphPad Prism (version 9.00; GraphPad Software Inc., San Diego, CA). […] An active well should have more than 40% active electrodes. All wells below this threshold were discarded upon these quality criteria. For the downstream statistical analysis, the data on each MEA parameter was first expressed as the ratio of exposed wells (percentage change between baseline and the treatment) and then normalized to the average of the control within the same plate. i.e., Baseline corrected ratios of n= 7 or eight wells were averaged per condition. Each well of the MEA served as its own control, and the changes in the electrical activity elicited by the treatments were expressed as a percentage of that control activity and normalized to the wells treated with the vehicle control dimethyl sulfoxide (DMSO). […] Differences were determined using the non-parametric Wilcoxon Mann Whitney test; p-values below 0.05 were considered significant. Data are expressed as means ± S.E.M.
# Thereafter, based on the effects of vehicles and positive controls, we determined the cut-off points between the different effect zones according to the key parameters selected as described in the previous subsection. The zones were defined as follows. The “no effect” zone reflects parameter changes that are most likely within vehicle variability. The “mild” and “strong” zones are differentiated bidirectionally showing mild and strong effects.
# The respective hazard class was determined by a cumulative scoring of individual parameters using a scoring matrix, which was based on the following three fundamental components: (1) selection of the six key relevant parameters, (2) defining the cutoffs for the level of effect, and (3) defining weighted points per parameter for the level of hazard potential. The scoring matrix concluded with the addition of a weighted point algorithm to discriminate distinct degrees of neuronal hazard. […] The weighted points were defined on the importance of a parameter (and the direction of effect), as well as the identification of an expected hazard for different pharmacological modes of action. The overall hazard score is derived from the sum of all weighted parameters, which could be converted into a specific hazard label. The weighted points and total score range associated with the various hazard labels were optimized using an iterative process.
compound,measurement,setting,value
OC[C@@H](O)[C@@H](O)[C@H](O)[C@@H](O)CO [Sorbitol],Percentage seizures of total number of ADRs,[1],0.6135%
same,SIDER ADR on-/off-label,[2],no frequency information
same,FDA prescription information at therapeutic dose (Convulsion/ Seizure/Lower the seizure threshold/withdrawal),[3],not found on label
Cc1nccn1CC1CCc2c(c3ccccc3n2C)C1=O (stereo not shown) [Ondansetron],Percentage seizures of total number of ADRs,[1],1.344%
same,Free Cmax highest,[4],0.0513 µM
same,SIDER ADR on-/off-label,[2],uncommon
same,FDA prescription information at therapeutic dose (Convulsion/ Seizure/Lower the seizure threshold/withdrawal),[3],on label
CC(C)(C)NCC(O)c1ccc(O)c(CO)c1 (stereo not shown) [Salbutamol],Percentage seizures of total number of ADRs,[1],0.3555%
same,Free Cmax highest,[4],0.056 µM
CN1CCN(C2=Nc3cc(Cl)ccc3Nc3ccccc32)CC1 [Clozapine],Free Cmax highest,[4],0.07 µM
CC1CCN(CCCC(=O)c2ccc(F)cc2)CC1 [Melperone],Free Cmax highest,[4],0.24 µM
CN1CCN(C(c2ccccc2)c2ccccc2)CC1 [Cyclizine],Percentage seizures of total number of ADRs,[1],1.797%
same,Free Cmax highest,[4],0.105 µM
same,SIDER ADR on-/off-label,[2],no frequency information
CC(=O)Nc1ccc(O)cc1 [Acetaminophen],Percentage seizures of total number of ADRs,[1],0.4389%
same,Free Cmax highest,[4],0.54 µM
same,FDA prescription information at therapeutic dose (Convulsion/ Seizure/Lower the seizure threshold/withdrawal),[3],not found on label
CC(=O)/N=c1/sc(S(N)(=O)=O)nn1C [Methazolamide],Percentage seizures of total number of ADRs,[1],0%
same,Free Cmax highest,[4],20.4 µM
same,SIDER ADR on-/off-label,[2],no frequency information
same,FDA prescription information at therapeutic dose (Convulsion/ Seizure/Lower the seizure threshold/withdrawal),[3],On label
C[C@@](Cc1ccc(O)c(O)c1)(NN)C(=O)O [Carbidopa],Percentage seizures of total number of ADRs,[1],0.8032%
same,Free Cmax highest,[4],0.55 µM
same,SIDER ADR on-/off-label,[2],no frequency information
same,FDA prescription information at therapeutic dose (Convulsion/ Seizure/Lower the seizure threshold/withdrawal),[3],on label
CCCC(CCC)C(=O)O [Valproic acid],Percentage seizures of total number of ADRs,[1],4.854%
same,Free Cmax highest,[4],92 µM
same,SIDER ADR on-/off-label,[2],not found on label
same,FDA prescription information at therapeutic dose (Convulsion/ Seizure/Lower the seizure threshold/withdrawal),[3],on label
Cc1ccc(F)c(NC(=O)Nc2ccc(-c3cccc4[nH]nc(N)c34)cc2)c1 [Linifanib],Percentage seizures of total number of ADRs,[1],0%
O=C1N(c2ccccc2)c2ccccc2C1(Cc1ccncc1)Cc1ccncc1 [Linopirdine],Free Cmax highest,[4],3 µM
NC12CC3CC(CC(C3)C1)C2 [Amantadine],Free Cmax highest,[4],2.84 µM
Cn1c(=O)c2[nH]cnc2n(C)c1=O [Theophylline],Percentage seizures of total number of ADRs,[1],4.2336%
same,Free Cmax highest,[4],26.58 µM
Cc1ccccc1C(OCCN(C)C)c1ccccc1 (stereo not shown) [Orphenadrine],Percentage seizures of total number of ADRs,[1],0.6083%
same,Free Cmax highest,[4],0.01 µM
same,SIDER ADR on-/off-label,[2],not found on label
same,FDA prescription information at therapeutic dose (Convulsion/ Seizure/Lower the seizure threshold/withdrawal),[3],not found on label
NC(=O)N1c2ccccc2C=Cc2ccccc21 [Carbamazepine],Percentage seizures of total number of ADRs,[1],5.289%
same,Free Cmax highest,[4],12.1 µM
same,SIDER ADR on-/off-label,[2],common
same,FDA prescription information at therapeutic dose (Convulsion/ Seizure/Lower the seizure threshold/withdrawal),[3],not found on label
CC[C@@H]1C(=O)OC[C@@H]1Cc1cncn1C [Pilocarpine],Percentage seizures of total number of ADRs,[1],0.1965%
same,Free Cmax highest,[4],0.375 µM
same,SIDER ADR on-/off-label,[2],not found on label
same,FDA prescription information at therapeutic dose (Convulsion/ Seizure/Lower the seizure threshold/withdrawal),[3],not found on label
NC[C@H]1CC[C@H](C(=O)O)CC1 [Tranexamic Acid],Percentage seizures of total number of ADRs,[1],1.5%
same,Free Cmax highest,[4],101.25 µM
same,free Cmax concentration in man,[4],> 100 µM
same,SIDER ADR on-/off-label,[2],postmarketing
same,FDA prescription information at therapeutic dose (Convulsion/ Seizure/Lower the seizure threshold/withdrawal),[3],On label
Cc1ncc(CO)c(CO)c1O [Pyridoxine],Percentage seizures of total number of ADRs,[1],0.4851%
same,Free Cmax highest,[4],0.28 µM
same,SIDER ADR on-/off-label,[2],not found on label
same,FDA prescription information at therapeutic dose (Convulsion/ Seizure/Lower the seizure threshold/withdrawal),[3],not found on label
CNCCCC12CCC(c3ccccc31)c1ccccc12 [Maprotiline],Percentage seizures of total number of ADRs,[1],7.924%
same,Free Cmax highest,[4],0.0733 µM
same,SIDER ADR on-/off-label,[2],no frequency information
COc1c(N2C[C@@H]3CCCN[C@@H]3C2)c(F)cc2c(=O)c(C(=O)O)cn(C3CC3)c12 [Moxifloxacin],Free Cmax highest,[4],8.134 µM
CC(N)Cc1ccccc1 (stereo not shown) [Amphetamine],Percentage seizures of total number of ADRs,[1],1.043%
C[C@@H]1C[C@H]2[C@@H]3CCC4=CC(=O)C=C[C@]4(C)[C@@]3(F)[C@@H](O)C[C@]2(C)[C@@]1(O)C(=O)CO [Dexamethasone],Percentage seizures of total number of ADRs,[1],0.5218%
same,Free Cmax highest,[4],0.025 µM
same,SIDER ADR on-/off-label,[2],no frequency information
same,FDA prescription information at therapeutic dose (Convulsion/ Seizure/Lower the seizure threshold/withdrawal),[3],On label
"C[C@@H]([C@@H](O)c1ccc(O)cc1)N1CCC(O)(c2ccccc2)CC1 [Traxoprodil (CP-101606), Traxoprodil]",Free Cmax highest,[4],0.094 µM
CC[C@@H](C(N)=O)N1CCCC1=O [Levetiracetam],Percentage seizures of total number of ADRs,[1],15.5539%
same,Free Cmax highest,[4],276.35 µM
same,SIDER ADR on-/off-label,[2],2.38% - 6%
same,FDA prescription information at therapeutic dose (Convulsion/ Seizure/Lower the seizure threshold/withdrawal),[3],On label
COc1cccc2c1C(=O)c1c(O)c3c(c(O)c1C2=O)C[C@@](O)(C(=O)CO)C[C@@H]3O[C@H]1C[C@H](N)[C@H](O)[C@H](C)O1 [Doxorubicin],Percentage seizures of total number of ADRs,[1],0.3099%
same,Free Cmax highest,[4],3.99 µM
same,SIDER ADR on-/off-label,[2],"postmarketing, uncommon"
same,FDA prescription information at therapeutic dose (Convulsion/ Seizure/Lower the seizure threshold/withdrawal),[3],On label
CN(C)CCCN1c2ccccc2CCc2ccccc21 [Imipramine],Percentage seizures of total number of ADRs,[1],1.538%
same,Free Cmax highest,[4],0.053 µM
same,FDA prescription information at therapeutic dose (Convulsion/ Seizure/Lower the seizure threshold/withdrawal),[3],On label
COC(=O)C(c1ccccc1)C1CCCCN1 (stereo not shown) [Methylphenidate],Free Cmax highest,[4],0.165 µM
same,SIDER ADR on-/off-label,[2],postmarketing
same,FDA prescription information at therapeutic dose (Convulsion/ Seizure/Lower the seizure threshold/withdrawal),[3],On label
COc1ccc2c3c1O[C@H]1[C@@H](O)C=C[C@H]4[C@@H](C2)N(C)CC[C@@]341 [Codeine],Free Cmax highest,[4],0.88 µM
Cn1c(=O)c2c(ncn2C)n(C)c1=O [Caffeine],Area.Under.Cross.Correlation Lower.TI,[5],6.336
same,Area.Under.Cross.Correlation Upper.TI,[5],111.5
same,Burst.Duration...Avg.(s. Lower.TI),[5],-5.73
same,Burst.Duration...Avg.(s. Upper.TI),[5],16.22
same,Mean.Firing.Rate..Hz. Lower.TI,[5],8.914
same,Mean.Firing.Rate..Hz. Upper.TI,[5],94.17
same,Median.Mean.ISI Lower.TI,[5],-1.251
same,Median.Mean.ISI Upper.TI,[5],10.27
same,Free Cmax highest,[4],23.3 µM
OC(CCN1CCCCC1)(c1ccccc1)C1CCCCC1 (stereo not shown) [Trihexyphenidyl],Percentage seizures of total number of ADRs,[1],0.7979%
same,Free Cmax highest,[4],0.024 µM
same,SIDER ADR on-/off-label,[2],not found on label
same,FDA prescription information at therapeutic dose (Convulsion/ Seizure/Lower the seizure threshold/withdrawal),[3],not found on label
CN(C)CCCN1c2ccccc2CCc2ccc(Cl)cc21 [Clomipramine],Free Cmax highest,[4],0.009 µM
CCN(CC)C(C)C(=O)c1ccccc1 (stereo not shown) [Amfepramone],Free Cmax highest,[4],0.09 µM
CN1CCc2cccc3c2[C@H]1Cc1ccc(O)c(O)c1-3 [Apomorphine],Percentage seizures of total number of ADRs,[1],0.382%
same,Free Cmax highest,[4],0.0004 µM
same,SIDER ADR on-/off-label,[2],not found on label
same,FDA prescription information at therapeutic dose (Convulsion/ Seizure/Lower the seizure threshold/withdrawal),[3],not found on label
Clc1ccc2c(c1)C(N1CCNCC1)=Nc1ccccc1O2 [Amoxapine],Percentage seizures of total number of ADRs,[1],4.864%
same,Free Cmax highest,[4],0.01 µM
same,SIDER ADR on-/off-label,[2],no frequency information
same,FDA prescription information at therapeutic dose (Convulsion/ Seizure/Lower the seizure threshold/withdrawal),[3],on label
NNC(=O)c1ccncc1 [Isoniazid],Percentage seizures of total number of ADRs,[1],0.676%
same,Free Cmax highest,[4],57 µM
same,SIDER ADR on-/off-label,[2],no frequency information
same,FDA prescription information at therapeutic dose (Convulsion/ Seizure/Lower the seizure threshold/withdrawal),[3],on label
CN(C)CCCN1c2ccccc2Sc2ccc(Cl)cc21 [Chlorpromazine],Percentage seizures of total number of ADRs,[1],1.468%
same,Free Cmax highest,[4],0.054 µM
same,FDA prescription information at therapeutic dose (Convulsion/ Seizure/Lower the seizure threshold/withdrawal),[3],On label
O=C1CCc2ccc(OCCCCN3CCN(c4cccc(Cl)c4Cl)CC3)cc2N1 [Aripiprazole],Percentage seizures of total number of ADRs,[1],1.175%
same,Free Cmax highest,[4],0.011 µM
same,SIDER ADR on-/off-label,[2],Postmarketing
same,FDA prescription information at therapeutic dose (Convulsion/ Seizure/Lower the seizure threshold/withdrawal),[3],on label
COc1ccc(Cl)cc1[C@]1(F)C(=O)Nc2cc(C(F)(F)F)ccc21 [Flindokalner],Free Cmax highest,[4],0.34 µM
CC(C)(C)C(O)/C=C/c1ccc2c(c1)OCO2 (stereo not shown) [Stiripentol],Free Cmax highest,[4],0.67 µM
"C[C@]12N[C@H](Cc3ccccc31)c1ccccc12 [Dizocilpine (MK-801), Dizocilpine]",Area.Under.Cross.Correlation Lower.TI,[5],-94.33
same,Area.Under.Cross.Correlation Upper.TI,[5],-47.25
same,Burst.Duration...Avg.(s. Lower.TI),[5],-41.38
same,Burst.Duration...Avg.(s. Upper.TI),[5],248.8
same,Mean.Firing.Rate..Hz. Lower.TI,[5],-92.35
same,Mean.Firing.Rate..Hz. Upper.TI,[5],-66.07
same,Median.Mean.ISI Lower.TI,[5],-38.05
same,Median.Mean.ISI Upper.TI,[5],23.07
CC1(C)S[C@@H]2[C@H](NC(=O)[C@H](N)c3ccc(O)cc3)C(=O)N2[C@H]1C(=O)O [Amoxicillin],Percentage seizures of total number of ADRs,[1],0.1648%
same,Free Cmax highest,[4],25.83 µM
same,SIDER ADR on-/off-label,[2],"very rare, postmarketing"
same,FDA prescription information at therapeutic dose (Convulsion/ Seizure/Lower the seizure threshold/withdrawal),[3],on label
CC(C)NCC(O)COc1cccc2ccccc12 (stereo not shown) [Propranolol],Free Cmax highest,[4],0.12 µM
CC(CN1c2ccccc2Sc2ccccc21)N(C)C (stereo not shown) [Promethazine],Percentage seizures of total number of ADRs,[1],1.639%
same,Free Cmax highest,[4],0.072 µM
same,SIDER ADR on-/off-label,[2],no frequency information
same,FDA prescription information at therapeutic dose (Convulsion/ Seizure/Lower the seizure threshold/withdrawal),[3],on label
